Laboratory results published in publication PMC3606385 (PLoS ONE, 2013).
“And” between values parts separate entries of the source, which are not always exact repeats. Equal values may be shown once. “Also recorded” adds a separate entry of the source. Marks after values point to notes of the source that are not given here.

Columns and labels:
[1] = target: T1, rat liver microsomal 11β-HSD1 (Rattus norvegicus, UniProt P16232); assay: Mode of inhibition (Lineweaver-Burk), rat liver microsomal 11β-HSD1; type: biochemical; settings: Lineweaver-Burk plot, substrate 11DHC
T1 construct: Rat liver, testis and kidney microsomes were prepared as described previously; from tissue; host or cells: rat liver microsomes
Protocol: (§1) The rat testis and liver or human liver microsomes were used for 11β-HSD1 assay. 11β-HSD1 activity was performed in the microsome according to a previously described method. In brief, the assay tubes contained 25 nM substrate 11DHC (for rat) or cortisone (for human), spiked with 30,000 cpm their respective ^3H-11keto-steroid, 0.2 mM NADPH and 5 mM glucose-6-phosphaare in the PBS buffer. 2 µg microsomes were added to each tube to initiate the reaction and the reaction mixture was incubated for up to 2 hrs, during which the reaction is within the linear range. The rest procedure was similar to 11β-HSD1 assay in intact cells.
(§2) The IC50 was determined by adding different concentrations of each compound in the 11β-HSD1 or 11β-HSD2 reaction as described. The mode of inhibition was assayed by adding various concentrations of steroid substrates in the presence of an inhibitor as described.
Enzyme data were subjected to nonlinear analysis by GraphPad (Version 5, GraphPad Software Inc., San Diego, CA) for IC50. Lineweaver-Burk plot was used for the mode of inhibition. Data were subjected to analysis by one-way ANOVA followed by Tukey's multiple comparisons testing to identify significant differences between groups when three were calculated. Differences were regarded as significant at P<0.05.

rats = settings: cited from earlier work
db/db mice = settings: cited from earlier work
diabetic rats = settings: normal or high fat diet; cited from earlier work
[2] = test system: Sprague-Dawley rats with high-fat-diet-induced metabolic syndrome; assay: High-fat-diet-induced metabolic syndrome treatment in rats; type: in vivo, rat; settings: for Effect on serum LDL / Effect on serum glucose / Effect on serum total cholesterol / Effect on serum triglyceride (Tg): 200 mg/kg
Protocol: By the end of curcumin treatment, rats were euthanized. The body, liver, kidney and testis weights were recorded. Sera were collected after placing the bloods at room temperature for 25 min and centrifuged at 1500 g/min for 20 minutes. Sera were used for measurement of serum glucose, and lipid analysis. Serum glucose, total cholesterol, low density […], apolipoprotein A1 is (APOA1) and apolipoprotein B (APOB) were measured using a Hitachi 7600 biochemical analyzer (Hitachi, Japan) according to standard clinical protocol.

Rat 11β-HSD1 [3] = target: T2, Rat 11β-HSD1 (Rattus norvegicus, UniProt P16232); assay: 11β-HSD1 assay in intact rat Leydig cells; type: cell-based
T2 construct: endogenous in cells; host or cells: primary adult Sprague-Dawley rat Leydig cells
Protocol: Rat Leydig cells contain the highest 11β-HSD1 activity in all cell types of rat tissues, and were used for rat 11β-HSD1 enzyme sources. Purified rat Leydig cells were obtained from 90-day-old Sprague-Dawley rats by collagenase digestion of the testes followed by Percoll density centrifugation of the cell suspension, according to the previously described method. […] The purity of cell fractions was evaluated by histochemical staining for 3β-hydroxysteroid dehydrogenase activity with […] etiocholanolone as the steroid substrate.
11β-HSD1 reductase activity was performed in intact cells using endogenous cofactor NADPH as described previously. […] 25×10^3 cells were added to each tube to initiate the reaction and the reaction mixture was incubated for up to 2 hrs, during which the reaction is within the linear range. At the end of reaction, the reaction was stopped by adding 2 ml ice-cold ether. The steroids were extracted, and the organic layer was dried under nitrogen. The steroids were separated chromatographically on thin layer plates in chloroform and methanol (90∶10, v/v), and the radioactivity was measured using a scanning radiometer (System AR2000, Bioscan Inc., Washington, DC) as described previously. The percentage conversion of 11DHC to CORT or cortisone to cortisol was calculated by dividing the radioactive counts identified as 11-OH-steroids by the total counts.
as §2

Human 11β-HSD1 = target: T3, Human 11β-HSD1 (Homo sapiens, UniProt P28845); assay: 11β-HSD1 assay in microsomes from CHOP cells transfected with human HSD11B1; type: biochemical
T3 construct: expressed in transfected cells; host or cells: CHOP cells (transient, FuGENE)
Protocol: An expression plasmid was constructed to express human 11β-HSD1 (HSD11B1) cDNA in pcDNA I expression vector from its original human HSD11B1 vector (pBluescriptSK+).[15]. The Escherichia coli transformants carrying an insert were selected by colony hybridization, and a clone with the insert in the correct orientation relative to the vector T7 promoter was identified by restriction mapping. All transfections were carried out on 80% confluent cultures in 12-well plates. Aliquots of 1 µg HSD11B1 pcDNA I were transfected into mammalian CHOP cells with the FuGENE Transfection Reagent (Roche) according to manufacturer's protocol. Cells were allowed to grow for 24 hours in media containing 10% fetal bovine serum. Then media were removed and cells were harvested for 11β-HSD1 activity assay.
as §1, with “In brief, the assay tubes contained 25 nM substrate 11DHC (for rat) or cortisone (for human), spiked with 30,000 cpm their respective ^3H-11keto-steroid, 0.2 mM NADPH and 5 mM glucose-6-phosphaare in the PBS buffer.” left out
as §2

Rat 11β-HSD1 [4] = target: T2, Rat 11β-HSD1; assay: 11β-HSD1 assay in adult rat testis microsomes; type: biochemical
Protocol: Rats were euthanized by CO2, and livers, testes and kidneys were collected. Rat liver, testis and kidney microsomes were prepared as described previously. In brief, rat liver and kidney were homogenized in […] PBS buffer containing 0.25 M sucrose, and nuclei and large cell debris were removed by centrifugation at 1500× g for 10 min. The post-nuclear supernatants were centrifuged twice at 105,000×g, the resultant microsomal pellets were resuspended. Protein contents were measured by Bio-Rad Dye Reagent Concentrate (Cat.#500-0006). Microsomes were used for measurement of 11β-HSD1 and 11β-HSD2 activities.
as §1, with “In brief, the assay tubes contained 25 nM substrate 11DHC (for rat) or cortisone (for human), spiked with 30,000 cpm their respective ^3H-11keto-steroid, 0.2 mM NADPH and 5 mM glucose-6-phosphaare in the PBS buffer.” left out
as §2

[5] = HFD rats, 200 mg/kg curcumin, 2 months, vs HFD
[6] = HFD rats, 200 mg/kg curcumin, 2 months, vs HFD, listed as Curcumin
[7] = HFD rats, 200 mg/kg curcumin, 2 months, vs HFD, listed as curcumin
[8] = HFD rats, 200 mg/kg/day gavage, 2 months, Mean ± SEM, n = 10

T2 sequence (P16232 whole entry): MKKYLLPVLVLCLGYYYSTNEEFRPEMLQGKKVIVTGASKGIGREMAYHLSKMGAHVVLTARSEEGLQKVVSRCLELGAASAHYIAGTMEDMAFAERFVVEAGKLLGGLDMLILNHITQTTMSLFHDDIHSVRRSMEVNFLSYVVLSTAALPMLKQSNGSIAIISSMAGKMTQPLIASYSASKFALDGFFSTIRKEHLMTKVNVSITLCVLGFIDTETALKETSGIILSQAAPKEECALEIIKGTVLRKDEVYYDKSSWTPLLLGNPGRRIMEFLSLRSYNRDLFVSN
T1 sequence (P16232 whole entry): as above
T3 sequence (P28845 whole entry): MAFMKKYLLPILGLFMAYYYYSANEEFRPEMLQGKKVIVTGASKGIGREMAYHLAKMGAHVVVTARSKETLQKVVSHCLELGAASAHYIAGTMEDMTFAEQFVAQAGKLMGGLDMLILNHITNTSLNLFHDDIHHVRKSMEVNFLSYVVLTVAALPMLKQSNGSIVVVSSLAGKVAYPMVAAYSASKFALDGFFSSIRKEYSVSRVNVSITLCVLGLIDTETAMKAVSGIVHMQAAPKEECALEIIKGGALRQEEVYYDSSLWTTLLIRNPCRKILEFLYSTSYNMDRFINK

Compound: COc1cc(/C=C/C(=O)CC(=O)/C=C/c2ccc(O)c(OC)c2)ccc1O [1 (Curcumin), Curcumin]
- Mode of inhibition of rat 11β-HSD1 [1]: competitive inhibitor
- Effect on serum and liver cholesterol levels (rats): lowered
- Effect on body weights (db/db mice): lowered
- Effect on insulin resistance (db/db mice): corrected
- Effect on serum glucose levels (db/db mice): significantly reduced
- Effect on serum Tg (diabetic rats): remarkably reduced
- Effect on serum cholesterol (diabetic rats): remarkably reduced
- Effect on lipid profiles / HFD-induced dyslipidemia ([2]; 200 mg/kg/day oral, HFD rats): effectively improved; also recorded: effectively prevented
- Effect on serum APOA1 [2, 5]: significantly lowered
- Effect on serum APOB [2, 5]: significantly lowered
- Effect on serum LDL [2, 6]: reduced
- Effect on serum glucose [2, 6]: reduced
- Effect on serum total cholesterol [2, 6]: reduced
- Effect on serum triglyceride (Tg) [2, 6]: reduced
- Effect on serum LDL [2, 7]: significantly lowered
- Effect on serum glucose [2, 7]: significantly lowered
- Effect on serum total cholesterol [2, 7]: significantly lowered
- Effect on serum triglyceride (Tg) [2, 7]: significantly lowered
- Body weight (g) [2, 8]: 324.8±6.614^b g
- Kidney(g) [2, 8]: 1.309±0.0756^a g
- Liver(g) [2, 8]: 10.67±0.297^a g
- Testis(g) [2, 8]: 2.664±0.1012^a g
- Weight Gain(g) [2, 8]: 136.3±6.516^c g
- Effect on HFD-induced increase of body weight gain ([2]; two months of treatment): reduced
- Effect on HFD-induced increase of liver weight ([2]; two months of treatment): reduced
- Effect on kidney weight ([2]; two months of treatment): did not affect
- Effect on testis weight ([2]; two months of treatment): did not affect
- Adverse effects during treatment ([2]; two-month treatment, 200 mg/kg/day): no adverse effects
- IC50 (Rat 11β-HSD1 [3]; intact adult rat Leydig cells, read-out: IC50 rat 11β-HSD1 in intact cells): 5790 nM and 2290 nM and 2000 to 6000 nM
- IC50 (Rat 11β-HSD1 [3]; intact rat Leydig cells, read-out: Rat 11β-HSD1 IC50 (nM) in Leydig cells): 5790 nM
- IC50 (Human 11β-HSD1): 10.6 ± 7.17 µM
- IC50 (Rat 11β-HSD1 [4]): 4.18 ± 0.24 µM
